Measured values published in EP4793277A1, “CARBOXYLIC ACID COMPOUND AND PREPARATION METHOD THEREFOR AND USE THEREOF” (Nutshell Therapeutics (Shanghai) Co., Ltd., priority 2023, dated 2025).
Where two headings read alike, the source gives them in different places.

Key:
[1] = target: T1, p53 Y220C mutant (Homo sapiens, UniProt P04637, Y220C); experiment: HTRF assay: compounds promoting the binding of p53 Y220C mutant with DNA; format: biochemical; settings: HTRF/FRET; His-tagged p53 Y220C (94-312) with biotin-labeled DNA; incubated overnight
T1 construct: Recombinant His-tagged p53 Y220C (94-312) used for HTRF assays was expressed in E. coli; made in house; host or cells: E. coli
Method: Homogeneous time-resolved fluorescence (HTRF) assay was used to measure the reactivation effect of compounds on the p53 Y220C mutant. Recombinant His-tagged p53 Y220C (94-312) used for HTRF assays was expressed in E. coli and purified to 90% purity using a Ni-NTA column. The biotin-labeled DNA used for HTRF assays was synthesized by Pharmaron Inc, with the specific sequence of 5'-[…]-3'.
The binding of recombinant His-tagged p53 Y220C protein with biotin-labeled DNA was measured using fluorescence resonance energy transfer (FRET). For FRET assays, the binding between the p53 mutant and the DNA sequences was measured by detecting the fluorescence of the interaction between Eu-conjugated anti-His antibody (Cisbio, 61HI2KLA) and d2-conjugated streptavidin (Cisbio, 610SADLF) bound to a biotin-labeled DNA molecule. Compounds were prepared as 2 mM stock solutions and serially diluted 1:3 in DMSO to obtain 10 concentrations. Each compound at 200× working concentration was sequentially diluted to 4× working concentration. 4 µL of compound solution was transferred row-by-row to a 384-well assay plate using Echo, with 2 replicates per column. Subsequently, 4 µL of p53 solution was added to the assay plate, followed by 4 µL of biotinylated DNA solution, and then 4 µL of assay solution (His-Eu antibody and streptavidin-d2) was added to each well. The assay plate was incubated overnight in the dark. Fluorescence was read on a BMG microplate reader (BMG LABTECH).
The ratio for each well was calculated (ratio_665 nm/615 nm - ratio_background). The activity (%) was calculated as follows: C = (Ave_Ac−Ave_Ba)/(Ave_Dc−Ave_Bd) [formula] R data = (A−Ave_Ba−C×D)/(D−Ave_Bd) × (Ave_Dc−Ave_Bd) [formula] Activity (%) = R data/Ave_VC × 100. [formula] • A: fluorescence intensity of the sample at 665 nm; • D: fluorescence intensity of the sample at 615 nm; • Ba: fluorescence intensity of the plate background at 665 nm; • Bd: fluorescence intensity of the plate background at 615 nm; • Dc: fluorescence intensity of HIS-Eu background at 615 nm; • Ac: fluorescence intensity of streptavidin-d2 background at 665 nm; • VC: DMSO treatment group.
SC150 was calculated using GraphPad 8.0 to fit the logarithm of activity (%) versus compound concentration to a nonlinear regression (dose response-variable slope). Table 1: Activity of compounds promoting the binding of p53 Y220C mutant with DNA

[2] = system: NUGC-3 cells; experiment: Anti-proliferation effect on NUGC-3 cells (Cell Counting Kit-8); format: cell-based; settings: Homo sapiens, NUGC-3, 120 h, 5 days of treatment
Method: Cell line NUGC-3 (JCRB, JCRB0822) was cultured in RPMI 1640 medium (Invitrogen, 11875-085) supplemented with 10% (v/v) fetal bovine serum (BI, 04-002-1A), according to the standard instructions of the American Type Culture Collection. The cell line was authenticated by short tandem repeat profiling.
In the proliferation assay, 1000 NUGC-3 cells were seeded in a 96-well flat clear bottom, TC-treated plate (Corning, 3903) in 200 µL of medium per well, and allowed to recover overnight in culture medium. Compounds were added with increasing concentration, with DMSO treatment serving as a […]. After 5 days of treatment, the plate was equilibrated to room temperature for 30 minutes, and the number of living cells was measured by the addition of the Cell Counting Kit-8 reagent (MCE, HY-K0301). Absorbance was measured on an EnSpire microplate reader (PerkinElmer). The relative viability of each group was presented as the percentage change relative to the […] group and then fit to a four-parameter logit non-linear curve using the program XLFit (IDBS). Table 2: Anti-proliferation activity of compounds on NUGC-3 cells

[3] = target: T2, CYP1A2 (Homo sapiens, UniProt P05177); experiment: Inhibitory activity on CYP isoenzymes at a single concentration (liver microsomes); format: in vitro ADME; settings: pH 7.4, probe phenacetin, Final compound concentration: 10 µM, substrate Phenacetin, read-out: Inhibition rate (%) CYP1A2
T2 construct: from tissue; host or cells: liver microsomes
T2 sequence (P05177 1-516): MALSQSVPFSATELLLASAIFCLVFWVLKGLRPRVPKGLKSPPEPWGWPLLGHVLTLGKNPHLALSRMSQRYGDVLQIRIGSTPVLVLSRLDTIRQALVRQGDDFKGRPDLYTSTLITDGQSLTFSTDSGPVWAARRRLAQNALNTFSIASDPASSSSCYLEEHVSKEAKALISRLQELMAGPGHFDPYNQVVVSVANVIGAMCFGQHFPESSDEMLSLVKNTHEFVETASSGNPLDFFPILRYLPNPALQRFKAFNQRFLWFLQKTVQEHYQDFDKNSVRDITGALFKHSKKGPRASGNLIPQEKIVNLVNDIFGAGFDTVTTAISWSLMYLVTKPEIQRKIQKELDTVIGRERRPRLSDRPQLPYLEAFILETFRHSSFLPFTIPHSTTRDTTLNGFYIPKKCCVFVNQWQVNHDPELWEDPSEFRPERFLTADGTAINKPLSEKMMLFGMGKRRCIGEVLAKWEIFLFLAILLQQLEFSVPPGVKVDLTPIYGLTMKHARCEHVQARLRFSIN
Method: (§1) • 1. […] Experimental instrument and reagents: [table] […] The mixture was added with HCl to adjust the pH to 7.4 and brought to a final volume of 1000 mL with water. […] [table] [table] Liver microsomes were thawed in a water bath at 37°C prior to use. […] A 5 mM NADPH working solution was prepared in phosphate-buffered saline. […] 300 µL of the supernatant was aliquoted for further LC-MS/MS analysis. […] Table 3: Inhibitory activity of compounds on CYP isoenzymes*

[4] = target: T3, CYP2C19 (Homo sapiens, UniProt P33261); experiment: as above; format: in vitro ADME; settings: pH 7.4, probe mephenytoin, Final compound concentration: 10 µM, substrate Mephenytoin, read-out: Inhibition rate (%) CYP2C19
T3 construct: Liver microsomes were thawed in a water bath at 37°C prior to use; from tissue; host or cells: liver microsomes
Method: as §1

[5] = target: T4, CYP2C9 (Homo sapiens, UniProt P11712); experiment: as above; format: in vitro ADME; settings: pH 7.4, probe diclofenac, Final compound concentration: 10 µM, substrate Diclofenac, read-out: Inhibition rate (%) CYP2C9
T4 construct: Liver microsomes were thawed in a water bath at 37°C prior to use; from tissue; host or cells: liver microsomes
Method: as §1

[6] = target: T5, CYP2D6 (Homo sapiens, UniProt P10635); experiment: as above; format: in vitro ADME; settings: pH 7.4, probe dextromethorphan, Final compound concentration: 10 µM, substrate Dextromethorphan, read-out: Inhibition rate (%) CYP2D6
T5 construct: Liver microsomes were thawed in a water bath at 37°C prior to use; from tissue; host or cells: liver microsomes
Method: as §1

[7] = system: CYP3A4/5; experiment: as above; format: in vitro ADME; settings: Final compound concentration: 10 µM, human liver microsomes
Method: • 1. […] Experimental instrument and reagents:
(§2) The mixture was added with HCl to adjust the pH to 7.4 and brought to a final volume of 1000 mL with water.
Liver microsomes were thawed in a water bath at 37°C prior to use. […] A 5 mM NADPH working solution was prepared in phosphate-buffered saline.
(§3) 300 µL of the supernatant was aliquoted for further LC-MS/MS analysis.
Table 3: Inhibitory activity of compounds on CYP isoenzymes*

[8] = system: CYP3A4/5; experiment: Multi-concentration inhibitory activity curve of CYP3A4/5 enzymes (liver microsomes); format: in vitro ADME; settings: human liver microsomes
Method: • 1. Experimental purpose: To determine the concentration inhibitory activity curve of compounds on CYP3A4/5 enzymes. • 2. Experimental instrument and materials:
as §2
Liver microsomes were thawed in a water bath at 37°C prior to use. […] A 5 mM NADPH working solution was prepared in phosphate-buffered saline. […] The above stock solution was diluted with acetonitrile (4-fold dilution, 6 non-zero concentrations).
as §3
The half-maximal inhibitory concentration (IC50) was calculated using Graph Pad Prism. Table 3: Inhibitory activity of compounds on CYP3A4/5 enzymes

[9] = target: T6, hERG potassium channel (Homo sapiens, UniProt Q12809); experiment: Manual patch-clamp test of the inhibitory activity on hERG potassium channel; format: cell-based; settings: HEK293 cell line stably expressing the hERG ion channel, five concentrations 0.37 to 30 µM, n = 2
T6 construct: host or cells: HEK293
Method: This experiment was conducted to evaluate the effect of compounds in five concentrations on hERG channel current, obtaining a dose-effect curve and calculating the IC50.
Cell line and cell culture: HEK293 cell line stably expressing the hERG ion channel (Cat. No.: K1236) was purchased from Invitrogen. The cell line was cultured in medium containing 85% DMEM, 10% dialyzed fetal bovine serum, 0.1 mM non-essential amino acid solution, 100 U/mL penicillin-streptomycin solution, 25 mM HEPES, 5 µg/mL blasticidin, and 400 µg/mL geneticin. When the cell density grew to 40% to 80% of the bottom area of the culture dish, the cells were digested with trypsin and passaged three times per week. Prior to the experiment, the cells were cultured at a density of 5 × 10^5 cells per 3.5 cm culture dish, induced with 1 µg/mL doxycycline for 48 hours, followed by digestion, and seeded onto glass slides for subsequent manual patch-clamp experiments.
Solution preparation: Extracellular fluid (in mM): 132 sodium chloride, 4 potassium chloride, 3 calcium chloride, 0.5 magnesium chloride, 11.1 glucose, and 10 HEPES (pH adjusted to 7.35 with sodium hydroxide). Intracellular fluid (in mM): 10 EGTA, 10 HEPES, 10 potassium chloride, 10 sodium chloride, and 110 potassium fluoride (pH adjusted to 7.2 with potassium hydroxide). Osmolality of the solutions was controlled between 280 and 300 mOsmol/kg. The solutions were filtered and stored at 4°C prior to use.
Preparation of test compound solutions: Following the standard operating procedures, test compounds were dissolved in DMSO and prepared into a stock solution with a final concentration of 10 mM. The stock solution was serially diluted 1:3 in DMSO as the solvent to obtain three intermediate solutions with concentrations of 3.33, 1.11, and 0.37 mM. Prior to the experiment, the test compound intermediate solutions were further diluted 1:1000 with extracellular fluid to prepare a series of working solutions. […]

[10] = pH 7.4, probe midazolam, substrate Midazolam, read-out: Inhibition rate (%) CYP3A4/5 (Midazolam)
[11] = pH 7.4, probe testosterone, substrate Testosterone, read-out: Inhibition rate (%) CYP3A4/5 (Testosterone)
[12] = pH 7.4, probe midazolam, midazolam as substrate
[13] = pH 7.4, probe testosterone, testosterone as substrate

T6 sequence (Q12809 whole entry): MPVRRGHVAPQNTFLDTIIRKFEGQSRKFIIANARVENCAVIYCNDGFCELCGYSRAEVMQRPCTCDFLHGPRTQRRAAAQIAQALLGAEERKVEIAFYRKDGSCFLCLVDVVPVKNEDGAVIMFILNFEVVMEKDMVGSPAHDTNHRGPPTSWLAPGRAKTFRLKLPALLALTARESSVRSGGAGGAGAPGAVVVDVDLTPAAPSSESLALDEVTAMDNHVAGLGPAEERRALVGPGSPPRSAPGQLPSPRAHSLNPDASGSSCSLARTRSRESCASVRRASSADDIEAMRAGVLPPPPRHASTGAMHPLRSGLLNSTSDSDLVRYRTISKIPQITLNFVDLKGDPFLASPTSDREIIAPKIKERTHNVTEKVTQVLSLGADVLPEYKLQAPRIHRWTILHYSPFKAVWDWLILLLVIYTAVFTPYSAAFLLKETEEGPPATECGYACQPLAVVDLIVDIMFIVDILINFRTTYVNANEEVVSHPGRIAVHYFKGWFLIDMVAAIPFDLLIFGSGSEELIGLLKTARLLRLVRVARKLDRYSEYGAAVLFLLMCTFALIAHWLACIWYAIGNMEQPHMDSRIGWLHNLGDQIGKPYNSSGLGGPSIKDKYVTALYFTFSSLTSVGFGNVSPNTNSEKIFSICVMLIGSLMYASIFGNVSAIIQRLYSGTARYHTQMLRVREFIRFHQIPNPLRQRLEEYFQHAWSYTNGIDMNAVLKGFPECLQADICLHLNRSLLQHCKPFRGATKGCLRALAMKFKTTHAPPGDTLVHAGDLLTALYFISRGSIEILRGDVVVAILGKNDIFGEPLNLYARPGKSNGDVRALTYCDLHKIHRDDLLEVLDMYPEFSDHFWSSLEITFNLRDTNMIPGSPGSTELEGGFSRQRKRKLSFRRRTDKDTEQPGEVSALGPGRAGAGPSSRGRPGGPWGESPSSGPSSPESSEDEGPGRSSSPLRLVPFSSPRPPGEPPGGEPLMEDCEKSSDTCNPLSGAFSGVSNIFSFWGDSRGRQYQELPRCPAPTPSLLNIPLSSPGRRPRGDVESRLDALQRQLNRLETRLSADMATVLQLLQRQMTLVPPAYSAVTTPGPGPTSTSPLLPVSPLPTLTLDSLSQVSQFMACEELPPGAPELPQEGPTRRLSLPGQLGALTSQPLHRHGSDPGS
T3 sequence (P33261 whole entry): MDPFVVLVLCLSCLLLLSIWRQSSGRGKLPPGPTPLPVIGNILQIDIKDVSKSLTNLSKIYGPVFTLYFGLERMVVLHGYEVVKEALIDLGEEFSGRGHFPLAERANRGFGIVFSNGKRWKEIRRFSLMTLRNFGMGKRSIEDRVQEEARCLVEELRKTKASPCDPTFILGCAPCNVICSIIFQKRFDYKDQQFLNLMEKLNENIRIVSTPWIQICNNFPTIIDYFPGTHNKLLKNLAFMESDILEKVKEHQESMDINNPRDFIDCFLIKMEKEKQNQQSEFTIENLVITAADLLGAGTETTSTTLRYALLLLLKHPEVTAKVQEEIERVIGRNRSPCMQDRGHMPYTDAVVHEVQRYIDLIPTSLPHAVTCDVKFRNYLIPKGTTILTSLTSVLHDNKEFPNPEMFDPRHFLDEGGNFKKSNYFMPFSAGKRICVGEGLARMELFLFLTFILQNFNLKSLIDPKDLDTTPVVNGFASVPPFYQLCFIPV
T5 sequence (P10635 whole entry): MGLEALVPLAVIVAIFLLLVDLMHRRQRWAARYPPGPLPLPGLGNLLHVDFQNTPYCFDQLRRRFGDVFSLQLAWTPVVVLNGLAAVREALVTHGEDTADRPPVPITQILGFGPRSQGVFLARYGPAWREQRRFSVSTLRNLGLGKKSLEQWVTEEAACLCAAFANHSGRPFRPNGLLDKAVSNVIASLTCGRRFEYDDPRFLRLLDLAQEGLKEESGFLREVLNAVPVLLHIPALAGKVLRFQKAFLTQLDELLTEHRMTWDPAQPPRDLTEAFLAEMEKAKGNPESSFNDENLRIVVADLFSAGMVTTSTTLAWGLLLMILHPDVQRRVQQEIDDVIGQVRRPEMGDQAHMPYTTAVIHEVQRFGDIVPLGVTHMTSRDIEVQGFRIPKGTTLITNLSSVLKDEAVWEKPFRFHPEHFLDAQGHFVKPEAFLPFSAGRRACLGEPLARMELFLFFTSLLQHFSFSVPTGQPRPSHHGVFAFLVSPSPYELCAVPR
T4 sequence (P11712 whole entry): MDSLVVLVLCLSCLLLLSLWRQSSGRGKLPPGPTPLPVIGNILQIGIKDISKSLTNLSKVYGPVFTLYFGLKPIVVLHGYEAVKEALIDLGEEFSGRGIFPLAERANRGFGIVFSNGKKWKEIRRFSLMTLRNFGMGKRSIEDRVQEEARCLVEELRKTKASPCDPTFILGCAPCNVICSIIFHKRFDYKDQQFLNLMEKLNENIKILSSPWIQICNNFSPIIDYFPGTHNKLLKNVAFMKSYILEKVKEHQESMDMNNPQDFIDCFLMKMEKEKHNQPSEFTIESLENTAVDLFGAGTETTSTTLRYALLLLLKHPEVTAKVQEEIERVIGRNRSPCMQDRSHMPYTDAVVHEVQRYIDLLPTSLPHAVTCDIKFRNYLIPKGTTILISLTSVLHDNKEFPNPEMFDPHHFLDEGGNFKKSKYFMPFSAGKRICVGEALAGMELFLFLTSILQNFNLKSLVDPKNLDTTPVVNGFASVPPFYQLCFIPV

[2H]C([2H])([2H])Oc1nc(C(=O)O)ccc1NCC#Cc1cc2c(N[C@@H]3CCN(C)C[C@@H]3F)cccn2c1CC(F)(F)F [Cpd-1, 5-((3-(8-(((3S,4R)-3-Fluoro-1-methylpiperidin-4-yl)amino)-3-(2,2,2-trifluoroethyl)indolizin-2-yl)prop-2-yn-1-yl)amino)-6-(methoxy-d3)picolinic acid]
SC150 [1]: 0.4 nM | IC50 [2]: 100 nM | inhibition at 10 min, 10 µM [3]: 6.3% | inhibition at 10 min, 10 µM [4]: 5.5% | inhibition at 10 min, 10 µM [5]: < 0% | inhibition at 10 min, 10 µM [6]: 2.6% | inhibition at 10 min, 10 µM [7, 10]: 3.4% | inhibition at 10 min, 10 µM [7, 11]: < 0% | IC50 at 10 min [8, 12]: > 50000 nM | IC50 at 10 min [8, 13]: > 50000 nM | IC50 [9]: > 30000 nM

COc1nc(C(=O)O)ccc1NCC#Cc1cc2c(N[C@@H]3CCN(C)C[C@@H]3F)cccn2c1CC(F)(F)F [Cpd-2, 5-((3-(8-(((3S,4R)-3-Fluoro-1-methylpiperidin-4-yl)amino)-3-(2,2,2-trifluoroethyl)indolizin-2-yl)prop-2-yn-1-yl)amino)-6-methoxypicolinic acid]
SC150 [1]: 0.5 nM | IC50 [2]: 120 nM | inhibition at 10 min, 10 µM [3]: 1.2% | inhibition at 10 min, 10 µM [4]: 1.9% | inhibition at 10 min, 10 µM [5]: < 0% | inhibition at 10 min, 10 µM [6]: 0.73% | inhibition at 10 min, 10 µM [7, 10]: < 0% | inhibition at 10 min, 10 µM [7, 11]: 1.7% | IC50 at 10 min [8, 12]: > 50000 nM | IC50 at 10 min [8, 13]: > 50000 nM | IC50 [9]: > 30000 nM

CNC(=O)c1ccc(NCC#Cc2cc3c(N[C@@H]4CCN(C)C[C@@H]4F)cccc3n2CC(F)(F)F)c(OC)c1 [Cpd-A]
SC150 [1]: 10 nM | IC50 [2]: 780 nM | inhibition at 10 min, 10 µM [3]: 12% | inhibition at 10 min, 10 µM [4]: 42% | inhibition at 10 min, 10 µM [5]: 38% | inhibition at 10 min, 10 µM [6]: 5.5% | inhibition at 10 min, 10 µM [7, 10]: 83% | IC50 at 10 min [8, 12]: 2300 nM | IC50 at 10 min [8, 13]: 890 nM | IC50 [9]: 19000 nM

COc1cc(S(C)(=O)=O)ccc1NCC#Cc1nc2c(N[C@@H]3CCN(C)C[C@@H]3F)cccn2c1CC(F)(F)F [Cpd-B]
SC150 [1]: 15 nM | IC50 [2]: 360 nM | inhibition at 10 min, 10 µM [3]: 0.56% | inhibition at 10 min, 10 µM [4]: 31% | inhibition at 10 min, 10 µM [5]: 21% | inhibition at 10 min, 10 µM [6]: 3.6% | inhibition at 10 min, 10 µM [7, 10]: 61% | inhibition at 10 min, 10 µM [7, 11]: 75%

CNC(=O)c1ccc(NCC#Cc2cc3c(N[C@@H]4CCN(C)C[C@@H]4F)cccn3c2CC(F)(F)F)c(OC)c1 [Cpd-C, 4-((3-(8-(((3S,4R)-3-Fluoro-1-methylpiperidin-4-yl)amino)-3-(2,2,2-trifluoroethyl)indolizin-2-yl)prop-2-yn-1-yl)amino)-3-methoxy-N-methylbenzamide]
SC150 [1]: 4.6 nM | IC50 [2]: 230 nM | inhibition at 10 min, 10 µM [3]: 18% | inhibition at 10 min, 10 µM [4]: 67% | inhibition at 10 min, 10 µM [5]: 43% | inhibition at 10 min, 10 µM [6]: 9.5% | inhibition at 10 min, 10 µM [7, 10]: 79% | IC50 at 10 min [8, 12]: 3800 nM
